Results taken from ChEMBL document CHEMBL1201862, “PubChem BioAssay data set” (2004).
Where a name gives a salt, the structure may show the parent alone.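 Interpolation was linear, between the two tested concentrations surrounding the appropriate level; five concentrations were tested over 48 hours in 96-well plates. Abbreviation: GI50, concentration required for 50% inhibition of growth.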 Activity calls are given as the source filed them. No stated cut-off is given here; in the data, active = GI50 up to about 1.1 µM and inactive = higher.

Legend:
Assay in all cases: NCI-60 cell line screen, 48 h
HCT-116 = test system: HCT-116
UO-31 = test system: UO-31
MDA-N = test system: MDA-N
ACHN = test system: ACHN
SF-539 = test system: SF-539
Hs-578T = test system: Hs-578T
SNB-75 = test system: SNB-75
SW-620 = test system: SW-620
U-251 = test system: U-251
K562 = test system: K562
IGROV-1 = test system: IGROV-1
MDA-MB-231 = test system: MDA-MB-231
KM12 = test system: KM12
LOX IMVI = test system: LOX IMVI
HCC 2998 = test system: HCC 2998
HL-60 = test system: HL-60
COLO 205 = test system: COLO 205
Malme-3M = test system: Malme-3M
SK-OV-3 = test system: SK-OV-3
CCRF-CEM = test system: CCRF-CEM

Row | SMILES | GI50 (HCT-116) | GI50 (UO-31) | GI50 (MDA-N) | GI50 (ACHN) | GI50 (SF-539) | GI50 (Hs-578T) | GI50 (SNB-75) | GI50 (SW-620) | GI50 (U-251) | GI50 (K562) | GI50 (IGROV-1) | GI50 (MDA-MB-231) | GI50 (KM12) | GI50 (LOX IMVI) | GI50 (HCC 2998) | GI50 (HL-60) | GI50 (COLO 205) | GI50 (Malme-3M) | GI50 (SK-OV-3) | GI50 (CCRF-CEM)
1 | COc1cc(/C=C2\N=C(c3ccccc3)N(c3nc4ccccc4s3)C2=O)cc(OC)c1OC | 35 µM (inactive) | 58.5 µM (inactive) | 15.3 µM (inactive) | 20.6 µM (inactive) | 32.3 µM (inactive) | 17.3 µM (inactive) | 23.1 µM (inactive) | 31.3 µM (inactive) | 26.1 µM (inactive) | 16.5 µM (inactive) | 28.6 µM (inactive) | 40.3 µM (inactive) | 31.3 µM (inactive) | 36.4 µM (inactive) | 27.4 µM (inactive) | 60.5 µM (inactive) | – | – | – | –
2 | CO[C@@]12C[C@@H](C)[C@]34O[C@H]3C[C@]3(C)O[C@]43CC1=C(C)C(=O)O2 | > 100 µM (inactive) | > 100 µM (inactive) | > 100 µM (inactive) | > 100 µM (inactive) | > 100 µM (inactive) | > 100 µM (inactive) | – | > 100 µM (inactive) | > 100 µM (inactive) | > 100 µM (inactive) | 38.8 µM (inactive) | > 100 µM (inactive) | > 100 µM (inactive) | > 100 µM (inactive) | > 100 µM (inactive) | – | > 100 µM (inactive) | > 100 µM (inactive) | > 100 µM (inactive) | –
3 | N#CSC#CCCC#CSC#N | 22.8 µM (inactive) | 18 µM (inactive) | 18.2 µM (inactive) | 17.5 µM (inactive) | 19.5 µM (inactive) | 23.5 µM (inactive) | – | 14.2 µM (inactive) | 16.9 µM (inactive) | 13.4 µM (inactive) | 20.3 µM (inactive) | 17.7 µM (inactive) | 17.7 µM (inactive) | 18.7 µM (inactive) | 17.5 µM (inactive) | > 100 µM (inactive) | 12.9 µM (inactive) | 17.9 µM (inactive) | 16.1 µM (inactive) | 3.1 µM (inactive)
4 | O=C1Nc2ccccc2/C1=C\c1c(Cl)nc2n1CCS2 | 23.6 µM (inactive) | 27 µM (inactive) | 15.7 µM (inactive) | 38.3 µM (inactive) | – | 16.6 µM (inactive) | 22.3 µM (inactive) | 31.3 µM (inactive) | 22.1 µM (inactive) | 21.3 µM (inactive) | 32.7 µM (inactive) | 19 µM (inactive) | 17.9 µM (inactive) | 31.8 µM (inactive) | 17.9 µM (inactive) | 16.8 µM (inactive) | 17.9 µM (inactive) | 23.7 µM (inactive) | 19.5 µM (inactive) | 26.9 µM (inactive)
5 | CCOC(=O)c1nnn(CCCCO)c1C(=O)OCC | > 100 µM (inactive) | > 100 µM (inactive) | > 100 µM (inactive) | > 10 µM (inactive) | > 100 µM (inactive) | > 100 µM (inactive) | > 100 µM (inactive) | > 100 µM (inactive) | > 100 µM (inactive) | – | > 100 µM (inactive) | > 100 µM (inactive) | > 100 µM (inactive) | > 100 µM (inactive) | > 100 µM (inactive) | – | > 100 µM (inactive) | > 100 µM (inactive) | – | > 100 µM (inactive)
6 | O=C1CC(=O)NC(NN2C(=O)CSC2c2ccc(Cl)c(Cl)c2)=N1 (stereo not given) | 63.2 µM (inactive) | > 100 µM (inactive) | 82.8 µM (inactive) | > 100 µM (inactive) | > 100 µM (inactive) | > 100 µM (inactive) | 75 µM (inactive) | > 100 µM (inactive) | > 100 µM (inactive) | 49.8 µM (inactive) | 50.9 µM (inactive) | > 100 µM (inactive) | 42.7 µM (inactive) | – | > 100 µM (inactive) | – | > 100 µM (inactive) | > 100 µM (inactive) | > 100 µM (inactive) | 19.5 µM (inactive)
7 | C=CCc1cc(-c2n[nH]c(=S)[nH]2)ccc1N/N=N/c1ccc(C(=O)O)cc1 | > 100 µM (inactive) | > 100 µM (inactive) | 66.2 µM (inactive) | 71.3 µM (inactive) | – | 44.6 µM (inactive) | > 100 µM (inactive) | > 100 µM (inactive) | > 100 µM (inactive) | 49 µM (inactive) | 83 µM (inactive) | > 100 µM (inactive) | 40.2 µM (inactive) | 74.5 µM (inactive) | – | 30.8 µM (inactive) | 22.6 µM (inactive) | 51.6 µM (inactive) | > 100 µM (inactive) | 54 µM (inactive)
8 | C=CCOC1(CC=C)C(=O)OC2C(O)COC21O (stereo not given) | > 100 µM (inactive) | > 100 µM (inactive) | > 100 µM (inactive) | > 100 µM (inactive) | > 100 µM (inactive) | > 100 µM (inactive) | – | > 100 µM (inactive) | > 100 µM (inactive) | > 100 µM (inactive) | > 100 µM (inactive) | > 100 µM (inactive) | > 100 µM (inactive) | > 100 µM (inactive) | > 100 µM (inactive) | > 100 µM (inactive) | > 100 µM (inactive) | > 100 µM (inactive) | > 100 µM (inactive) | > 100 µM (inactive)
9 | Clc1cccc(C2ON=C(c3ccccc3)N2C23CC4CC(CC(C4)C2)C3)c1Cl (stereo not given) | > 10 µM (inactive) | 5.02 µM (inactive) | > 10 µM (inactive) | > 10 µM (inactive) | > 10 µM (inactive) | > 10 µM (inactive) | > 10 µM (inactive) | > 10 µM (inactive) | > 10 µM (inactive) | > 10 µM (inactive) | > 10 µM (inactive) | > 10 µM (inactive) | > 10 µM (inactive) | > 10 µM (inactive) | > 10 µM (inactive) | – | > 10 µM (inactive) | > 10 µM (inactive) | > 10 µM (inactive) | > 10 µM (inactive)
10 | Cc1c(NC(=O)CSC(=S)N2CCN(Cc3ccccc3)CC2)c(=O)n(-c2ccccc2)n1C | > 100 µM (inactive) | > 100 µM (inactive) | > 100 µM (inactive) | > 100 µM (inactive) | > 100 µM (inactive) | > 100 µM (inactive) | – | > 100 µM (inactive) | > 100 µM (inactive) | > 100 µM (inactive) | > 100 µM (inactive) | > 100 µM (inactive) | > 100 µM (inactive) | > 100 µM (inactive) | 28.4 µM (inactive) | – | > 100 µM (inactive) | > 100 µM (inactive) | > 100 µM (inactive) | > 100 µM (inactive)
11 | Cc1ccc2[nH]c3c(c2c1)C1CCC(C(C)(C)C)CC1C1C(=O)N(c2ccc4c(c2)OCO4)C(=O)C31 (stereo not given) | 2.34 µM (inactive) | 2.55 µM (inactive) | 5.41 µM (inactive) | 1.87 µM (inactive) | 1.35 µM (inactive) | 1.55 µM (inactive) | – | 2.63 µM (inactive) | 2.1 µM (inactive) | 3.01 µM (inactive) | 2.45 µM (inactive) | 2.29 µM (inactive) | 5.25 µM (inactive) | 2.4 µM (inactive) | 2.38 µM (inactive) | 2.72 µM (inactive) | 3.31 µM (inactive) | 2.23 µM (inactive) | 2.58 µM (inactive) | 1.82 µM (inactive)
12 | C=CCN1C(=O)/C(=C/c2ccccc2)N=C1SC1OC(COC(C)=O)C(OC(C)=O)C(OC(C)=O)C1OC(C)=O (stereo not given) | 22.8 µM (inactive) | – | 29 µM (inactive) | 22.9 µM (inactive) | – | 25.5 µM (inactive) | 21.9 µM (inactive) | 28.5 µM (inactive) | 19.2 µM (inactive) | 24.4 µM (inactive) | 28.3 µM (inactive) | 18.6 µM (inactive) | 39.9 µM (inactive) | 27.2 µM (inactive) | 49.7 µM (inactive) | 26.5 µM (inactive) | – | 19.5 µM (inactive) | 38.7 µM (inactive) | 22.5 µM (inactive)
13 | C[C@@H]1CC[C@H]2C(C)(C)[C@H]3C[C@@]12CC[C@@]3(C)O [CEDROL] | > 100 µM (inactive) | > 100 µM (inactive) | > 100 µM (inactive) | > 100 µM (inactive) | > 100 µM (inactive) | > 100 µM (inactive) | > 100 µM (inactive) | > 100 µM (inactive) | > 10 µM (inactive) | 92 µM (inactive) | > 100 µM (inactive) | > 100 µM (inactive) | 48.1 µM (inactive) | > 100 µM (inactive) | 52.2 µM (inactive) | 18.7 µM (inactive) | > 100 µM (inactive) | – | > 100 µM (inactive) | > 100 µM (inactive)
14 | C#Cc1cccc(Nc2ncnc3cc(OCCOC)c(OCCOC)cc23)c1 [ERLOTINIB HYDROCHLORIDE] | 6.05 µM (inactive) | 3.79 µM (inactive) | 41 µM (inactive) | 0.109 µM (active) | 15.4 µM (inactive) | 5.01 µM (inactive) | 14.8 µM (inactive) | > 100 µM (inactive) | 29.4 µM (inactive) | – | 0.0857 µM (active) | 0.0139 µM (active) | 18.2 µM (inactive) | 4.34 µM (inactive) | – | – | 4.99 µM (inactive) | – | 0.286 µM (active) | > 100 µM (inactive)
15 | CCCCCC/C=C\CCCCCCCCCc1cccc(O)c1C(=O)O [GINKGOLIC ACID 17:1] | > 100 µM (inactive) | > 100 µM (inactive) | > 100 µM (inactive) | > 100 µM (inactive) | > 100 µM (inactive) | > 100 µM (inactive) | > 100 µM (inactive) | > 100 µM (inactive) | > 100 µM (inactive) | 65.9 µM (inactive) | > 100 µM (inactive) | > 100 µM (inactive) | > 100 µM (inactive) | – | > 100 µM (inactive) | > 100 µM (inactive) | > 100 µM (inactive) | > 100 µM (inactive) | > 100 µM (inactive) | 99.1 µM (inactive)
